Measurements as given in patent US20260070945A1, “MACROCYCLIC IMMUNOMODULATORS” (Bristol-Myers Squibb Company, priority 2022, published 2026).
Where a SMILES comes first, the peptide text is derived from it. Bridges are numbered along the chain shown (N, C = ends). [ ]: non-standard residue; d: D form. The star is where a group is joined. ξ: configuration not given here. Phe(3-CF3) = N[C@@H](Cc1cccc(C(F)(F)F)c1)C(=O)O; Phe(4-CONH2) = NC(=O)c1ccc(C[C@H](N)C(=O)O)cc1; Phe(4-COOH) = N[C@@H](Cc1ccc(C(=O)O)cc1)C(=O)O; Bip = N[C@@H](Cc1ccc(-c2ccccc2)cc1)C(=O)O; NH(CH2)14COOH = O=C(O)CCCCCCCCCCCCCCN*; Phe(3-Me) = Cc1cccc(C[C@H](N)C(=O)O)c1; Abu(3S-NH2) = C[C@H](N)[C@H](N)C(=O)O; NH(CH2)12COOH = O=C(O)CCCCCCCCCCCCN*; Cyclopropanecarbonyl = O=C(C1CC1)*; Val(3-OH) = CC(C)(O)[C@H](N)C(=O)O; 4Pal = N[C@@H](Cc1ccncc1)C(=O)O; Cha = N[C@@H](CC1CCCCC1)C(=O)O; Cit = NC(=O)NCCC[C@H](N)C(=O)O; Ile(3ξ) = CCC(C)[C@H](N)C(=O)O; Thr(3ξ) = CC(O)[C@H](N)C(=O)O; Carboxymethyl = O=C(O)C*; NMeA = CN[C@@H](C)C(=O)O; Orn = NCCC[C@H](N)C(=O)O; Aun = NCCCCCCCCCCC(=O)O; Dab = NCC[C@H](N)C(=O)O; AEEA = NCCOCCOCC(=O)O

biological target: T1, PD-1/PD-L1 interaction (PE-labeled human PD-L1-Ig binding to Jurkat cell line over-expressing human PD-1) (Homo sapiens, UniProt Q15116); experiment: Jurkat-PD-1 Cell Binding High-Content Screening Assay (CBA); conditions: Jurkat-hPD-1 cells, PE-labeled PD-L1-Ig 20 nM final; read-out: Jurkat HPD1 PDL1 IC50
T1 construct: expressed in transfected cells; host or cells: Jurkat
Method in brief: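 In this imaging assay, cells in 10% FCS medium see compound for 2 h at 37 °C and then labeled ligand at 20 nM final for 1 h. Paraformaldehyde fixation, Hoechst 33342 staining and dPBS washes precede image capture.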

T1 sequence (Q15116 25-288): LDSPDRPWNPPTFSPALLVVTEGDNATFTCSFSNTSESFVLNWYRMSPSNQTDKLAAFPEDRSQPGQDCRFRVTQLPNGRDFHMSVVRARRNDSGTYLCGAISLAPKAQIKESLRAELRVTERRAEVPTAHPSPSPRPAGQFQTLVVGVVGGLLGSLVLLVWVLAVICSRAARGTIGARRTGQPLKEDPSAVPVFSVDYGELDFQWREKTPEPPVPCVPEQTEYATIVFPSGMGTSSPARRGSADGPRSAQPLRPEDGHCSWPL

Row | IC50 | SMILES
1 | 0.0102 µM | Cc1cccc(C[C@@H]2NC(=O)[C@H](CC(=O)O)NC(=O)[C@H](Cc3ccc(OCC(=O)O)cc3)NC(=O)[C@H](C(C)O)NC(=O)CSC[C@@H](C(=O)N[C@H](CC(N)=O)C(=O)NCCCCCCCCCCC(=O)O)NC(=O)[C@H](CCCN)NC(=O)[C@H](C(C)C)NC(=O)[C@H](CC3CCCCC3)NC(=O)[C@H](CCN)NC(=O)[C@@H](CC(C)C)NC(=O)[C@H](C)N(C)C(=O)[C@H](Cc3ccc(O)cc3)NC(=O)[C@H](Cc3ccc(-c4ccccc4)cc3)NC(=O)[C@H](C(C)C)NC2=O)c1 (stereo partly drawn) [Example 2241] ({CH2CO}-[Thr(3ξ)]Y(Carboxymethyl)D[Phe(3-Me)]V[Bip]Y[NMeA][dL][Dab][Cha]V[Orn]C[dN][Aun]-OH; thioether N-14)
2 | 0.011 µM | Cc1cccc(C[C@@H]2NC(=O)[C@H](CC(=O)O)NC(=O)[C@H](Cc3ccc(OCC(=O)O)cc3)NC(=O)[C@H](CCCNC(=O)C3CC3)NC(=O)CSC[C@@H](C(=O)N[C@@H](CCN)C(=O)NCCCCCCCCCCC(=O)O)NC(=O)[C@H](C(C)O)NC(=O)[C@H](C(C)C)NC(=O)[C@H](CC3CCCCC3)NC(=O)[C@H](CCN)NC(=O)[C@@H](CC(C)C)NC(=O)[C@H](C)N(C)C(=O)[C@H](CCCNC(N)=O)NC(=O)[C@H](Cc3ccc(-c4ccccc4)cc3)NC(=O)[C@H](Cc3ccc(O)cc3)NC2=O)c1 (stereo partly drawn) [Example 2400] ({CH2CO}-[Orn](Cyclopropanecarbonyl)Y(Carboxymethyl)D[Phe(3-Me)]Y[Bip][Cit][NMeA][dL][Dab][Cha]V[Thr(3ξ)]C[Dab][Aun]-OH; thioether N-14)
3 | 0.0246 µM | Cc1cccc(C[C@@H]2NC(=O)[C@H](CC(=O)O)NC(=O)[C@H](Cc3ccc(OCC(=O)O)cc3)NC(=O)[C@H](Cc3ccc(C(N)=O)cc3)NC(=O)CSC[C@@H](C(=O)N[C@@H](CCN)C(=O)NCCCCCCCCCCC(=O)O)NC(=O)[C@H](CO)NC(=O)[C@H](C(C)C)NC(=O)[C@H](CC3CCCCC3)NC(=O)[C@H](CCN)NC(=O)[C@@H](CC(C)C)NC(=O)[C@H](C)N(C)C(=O)[C@H](Cc3ccc(O)cc3)NC(=O)[C@H](Cc3ccc(-c4ccccc4)cc3)NC(=O)[C@H](Cc3ccc(OCC(=O)O)cc3)NC2=O)c1 [Example 1277] ({CH2CO}-[Phe(4-CONH2)]Y(Carboxymethyl)D[Phe(3-Me)]Y(Carboxymethyl)[Bip]Y[NMeA][dL][Dab][Cha]VSC[Dab][Aun]-OH; thioether N-14)
4 | 0.0079 µM | CC(C)C[C@H]1NC(=O)[C@H](C)N(C)C(=O)[C@H](CCCNC(N)=O)NC(=O)[C@H](Cc2ccc(-c3ccccc3)cc2)NC(=O)[C@H](Cc2ccc(C(=O)O)cc2)NC(=O)[C@H](Cc2cccc(C(F)(F)F)c2)NC(=O)[C@H](CC(=O)O)NC(=O)[C@H](Cc2ccc(OCC(=O)O)cc2)NC(=O)[C@H]([C@H](C)N)NC(=O)CSC[C@@H](C(=O)N[C@@H](CCN)C(=O)NCCCCCCCCCCCCC(=O)O)NC(=O)[C@H](CCC(=O)O)NC(=O)[C@H](C(C)C)NC(=O)[C@H](CC2CCCCC2)NC(=O)[C@H](CCN)NC1=O [Example 1194] ({CH2CO}-[Abu(3S-NH2)]Y(Carboxymethyl)D[Phe(3-CF3)][Phe(4-COOH)][Bip][Cit][NMeA][dL][Dab][Cha]VEC[Dab]-{NH(CH2)12COOH}; thioether N-14)
5 | 0.183 µM | Cc1cccc(C[C@@H]2NC(=O)[C@H](CC(=O)O)NC(=O)[C@H](Cc3ccc(C(=O)O)cc3)NC(=O)[C@H](Cc3ccc(OCC(=O)O)cc3)NC(=O)CSC[C@@H](C(=O)NCCCCCCCCCCC(=O)O)NC(=O)[C@H](CCC(=O)O)NC(=O)[C@H](C(C)C)NC(=O)[C@H](CC3CCCCC3)NC(=O)[C@H](CCN)NC(=O)[C@@H](CC(C)C)NC(=O)[C@H](C)N(C)C(=O)[C@H](Cc3ccc(O)cc3)NC(=O)[C@H](Cc3ccc(-c4ccccc4)cc3)NC(=O)[C@H](CC(C)C)NC2=O)c1 [Example 2254] ({CH2CO}-Y(Carboxymethyl)[Phe(4-COOH)]D[Phe(3-Me)]L[Bip]Y[NMeA][dL][Dab][Cha]VEC[Aun]-OH; thioether N-14)

The next lines start with the compound.

Row | SMILES | IC50
6 | CCC(C)[C@@H]1NC(=O)[C@H](Cc2ccc(-c3ccccc3)cc2)NC(=O)[C@H](CC(C)C)NC(=O)[C@H](Cc2c[nH]c3ccccc23)NC(=O)[C@H](CC(=O)O)NC(=O)[C@H](Cc2ccc(OCC(=O)O)cc2)NC(=O)[C@H](Cc2ccncc2)NC(=O)CSC[C@@H](C(=O)N[C@@H](CCCN)C(=O)NCCOCCOCC(=O)NCCCCCCCCCCC(=O)O)NC(=O)[C@H](CO)NC(=O)[C@H](C(C)C)NC(=O)[C@H](CC2CCCCC2)NC(=O)[C@H](Cc2c[nH]cn2)NC(=O)[C@@H](CC(C)C)NC(=O)[C@H](C)N(C)C1=O (stereo partly drawn) [Example 2087] ({CH2CO}-[4Pal]Y(Carboxymethyl)DWL[Bip][Ile(3ξ)][NMeA][dL]H[Cha]VSC[Orn][AEEA][Aun]-OH; thioether N-14) | 0.0507 µM
7 | Cc1cccc(C[C@@H]2NC(=O)[C@H](CC(=O)O)NC(=O)[C@H](Cc3ccc(OCC(=O)O)cc3)NC(=O)[C@H](C(C)O)NC(=O)CSC[C@@H](C(=O)N[C@@H](CCN)C(=O)NCCOCCOCC(=O)NCCCCCCCCCCC(=O)O)NC(=O)[C@H](Cc3ccc(OCC(=O)O)cc3)NC(=O)[C@H](C(C)C)NC(=O)[C@H](CC3CCCCC3)NC(=O)[C@H](CCN)NC(=O)[C@@H](CC(C)C)NC(=O)[C@H](C)N(C)C(=O)[C@H](Cc3ccc(OCC(=O)O)cc3)NC(=O)[C@H](Cc3ccc(-c4ccccc4)cc3)NC(=O)[C@H](Cc3ccc(C(=O)O)cc3)NC2=O)c1 (stereo partly drawn) [Example 2478] ({CH2CO}-[Thr(3ξ)]Y(Carboxymethyl)D[Phe(3-Me)][Phe(4-COOH)][Bip]Y(Carboxymethyl)[NMeA][dL][Dab][Cha]VY(Carboxymethyl)C[Dab][AEEA][Aun]-OH; thioether N-14) | 0.0252 µM
8 | CC[C@H](C)[C@@H]1NC(=O)[C@H](Cc2ccc(-c3ccccc3)cc2)NC(=O)[C@H](CC(C)C)NC(=O)[C@H](Cc2c[nH]c3ccccc23)NC(=O)[C@H](CC(=O)O)NC(=O)[C@H](Cc2ccc(C(=O)O)cc2)NC(=O)[C@H](Cc2ccc(OCC(=O)O)cc2)NC(=O)CSC[C@@H](C(=O)N[C@@H](CCCN)C(=O)NCCOCCOCC(=O)NCCCCCCCCCCC(=O)O)NC(=O)[C@H](CO)NC(=O)[C@H](C(C)C)NC(=O)[C@H](CC2CCCCC2)NC(=O)[C@H](CCN)NC(=O)[C@@H](CC(C)C)NC(=O)[C@H](C)N(C)C1=O [Example 1078] ({CH2CO}-Y(Carboxymethyl)[Phe(4-COOH)]DWL[Bip]I[NMeA][dL][Dab][Cha]VSC[Orn][AEEA][Aun]-OH; thioether N-14) | 0.0161 µM
9 | CC(C)C[C@H]1NC(=O)[C@H](C)N(C)C(=O)[C@H](Cc2ccc(OCC(=O)O)cc2)NC(=O)[C@H](Cc2ccc(-c3ccccc3)cc2)NC(=O)[C@H](Cc2ccc(OCC(=O)O)cc2)NC(=O)[C@H](Cc2c[nH]c3ccccc23)NC(=O)[C@H](CC(=O)O)NC(=O)[C@H](Cc2ccc(OCC(=O)O)cc2)NC(=O)[C@H]([C@@H](C)O)NC(=O)CSC[C@@H](C(=O)N[C@@H](CCCN)C(=O)NCCOCCOCC(=O)NCCCCCCCCCCC(=O)O)NC(=O)[C@H](CO)NC(=O)[C@H](C(C)C)NC(=O)[C@H](CC2CCCCC2)NC(=O)[C@H](CC(N)=O)NC1=O [Example 1389] ({CH2CO}-TY(Carboxymethyl)DWY(Carboxymethyl)[Bip]Y(Carboxymethyl)[NMeA][dL]N[Cha]VSC[Orn][AEEA][Aun]-OH; thioether N-14) | 0.227 µM

same assay, conditions: PE-labeled PD-L1-Ig 20 nM final, Jurkat-hPD-1 cells; read-out: Jurkat HPD1 PDL1 IC50

Row | IC50 | SMILES
10 | 0.0311 µM | CC(C)C[C@H]1NC(=O)[C@H](C)N(C)C(=O)[C@H](CCC(N)=O)NC(=O)[C@H](Cc2ccc(-c3ccccc3)cc2)NC(=O)[C@H](C(C)C)NC(=O)[C@H](Cc2c[nH]c3ccccc23)NC(=O)[C@H](CC(=O)O)NC(=O)[C@H](Cc2ccc(OCC(=O)O)cc2)NC(=O)[C@H](Cc2ccncc2)NC(=O)CSC[C@@H](C(=O)N[C@@H](CCN)C(=O)NCCOCCOCC(=O)NCCCCCCCCCCC(=O)O)NC(=O)[C@H](CCC(=O)O)NC(=O)[C@H](C(C)C)NC(=O)[C@H](CC2CCCCC2)NC(=O)[C@H](CCN)NC1=O [Example 2492] ({CH2CO}-[4Pal]Y(Carboxymethyl)DWV[Bip]Q[NMeA][dL][Dab][Cha]VEC[Dab][AEEA][Aun]-OH; thioether N-14)
11 | 0.036 µM | Cc1cccc(C[C@@H]2NC(=O)[C@H](CC(=O)O)NC(=O)[C@H](Cc3ccc(OCC(=O)O)cc3)NC(=O)[C@H](C(C)O)NC(=O)CSC[C@@H](C(=O)N[C@@H](CCN)C(=O)NCCCCCCCCCCC(=O)O)NC(=O)[C@H](CO)NC(=O)[C@H](Cc3cnc[nH]3)NC(=O)[C@H](CC3CCCCC3)NC(=O)[C@H](CCN)NC(=O)[C@@H](CC(C)C)NC(=O)[C@H](C)N(C)C(=O)[C@H](Cc3ccc(OCC(=O)O)cc3)NC(=O)[C@H](Cc3ccc(-c4ccccc4)cc3)NC(=O)[C@H](Cc3ccc(OCC(=O)O)cc3)NC2=O)c1 (stereo partly drawn) [Example 2426] ({CH2CO}-[Thr(3ξ)]Y(Carboxymethyl)D[Phe(3-Me)]Y(Carboxymethyl)[Bip]Y(Carboxymethyl)[NMeA][dL][Dab][Cha]HSC[Dab][Aun]-OH; thioether N-14)
12 | 0.103 µM | CC(=O)NCCCC[C@@H]1NC(=O)[C@H](C(C)(C)O)NC(=O)[C@H](CC2CCCCC2)NC(=O)[C@H](CCN)NC(=O)[C@@H](CC(C)C)NC(=O)[C@H](C)N(C)C(=O)[C@H](CCC(N)=O)NC(=O)[C@H](Cc2ccc(-c3ccccc3)cc2)NC(=O)[C@H](Cc2ccc(C(=O)O)cc2)NC(=O)[C@H](Cc2cccc(C)c2)NC(=O)[C@H](CC(=O)O)NC(=O)[C@H](Cc2ccc(OCC(=O)O)cc2)NC(=O)[C@H](Cc2ccc(OCC(=O)O)cc2)NC(=O)CSC[C@@H](C(=O)N[C@@H](CCN)C(=O)NCCOCCOCC(=O)NCCCCCCCCCCCCCCC(=O)O)NC1=O [Example 2576] ({CH2CO}-Y(Carboxymethyl)Y(Carboxymethyl)D[Phe(3-Me)][Phe(4-COOH)][Bip]Q[NMeA][dL][Dab][Cha][Val(3-OH)]K(Ac)C[Dab][AEEA]-{NH(CH2)14COOH}; thioether N-14)
